Data as given in EP2646421B1, “7-NITRO-5-PHENYL-1-(PYRROLIDIN-1-YLMETHYL)-1H-BENZO[E][1,4]DIAZEPIN-2(3H)-ONE AND OTHER BENZODIAZEPINE DERIVATIVES” (Pignataro, Giuseppe, priority 2010, dated 2012).

Legend:
Assay type in all cases: cell-based
NCX1 = molecular target: T1, NCX1 (Canis lupus familiaris, UniProt P23685); assay: Patch-clamp electrophysiology (whole-cell NCX currents), BHK-NCX1 cells; details: 10 nM, 10 minutes
T1 construct: expressed in transfected cells
Method: To further investigate the effects of this compound on the Na^+/Ca^2+ exchanger activity, we performed electrophysiological experiments on BHK cells stably transfected with each of NCX isoforms (named BHK-NCX1, BHK-NCX2 and BHK-NCX3).
The activity of NCX was established by means of three different subclones of baby hamsted kidney (BHK) cells that were stably transfected with one of each NCX isoforms, named BHK-NCX1, BHK-NCX2 and BHK-NCX3. These cell lines were grown on plastic dishes in a mix of DMEM and Ham's F12 media (1:1) (Gibco, Invitrogen, MI, Italy) supplemented with 5% fetal bovine serum, 100 U/ml penicillin, and 100 µg/ml streptomycin (Sigma, St. Louis, Missouri, USA). Cells were cultured in a humidified 5% CO2 atmosphere and at the temperature of 37°C.
NCX currents (/NCX) was recorded from BHK wild-type and BHK stably transfected cells with NCX1, NCX2, and NCX3 and all each mutated of single isoforrms by patch-clamp technique in whole-cell configuration. […] Data were acquired and analyzed by use of pClamp software (version 9.0, Molecular Devices). In brief, /NCX was recorded starting from a holding potential of -60 mV up to a short-step depolarization at +60 mV (60 ms) (He et al., 2003; Xiao et al., 2004). […] The current recorded in the descending portion of the ramp (from +60 to -120 mV) was used to plot the current-voltage (I-V) relation curve. […]

NCX1 L808F = molecular target: T2, NCX1 L808F (Canis lupus familiaris, UniProt P23685, L840F); assay: NCX1 point mutant activity (45Ca2+ uptake and Fura-2); details: single mutation, functional exchanger
T2 construct: expressed in transfected cells
T2 sequence (P23685 33-970 L840F): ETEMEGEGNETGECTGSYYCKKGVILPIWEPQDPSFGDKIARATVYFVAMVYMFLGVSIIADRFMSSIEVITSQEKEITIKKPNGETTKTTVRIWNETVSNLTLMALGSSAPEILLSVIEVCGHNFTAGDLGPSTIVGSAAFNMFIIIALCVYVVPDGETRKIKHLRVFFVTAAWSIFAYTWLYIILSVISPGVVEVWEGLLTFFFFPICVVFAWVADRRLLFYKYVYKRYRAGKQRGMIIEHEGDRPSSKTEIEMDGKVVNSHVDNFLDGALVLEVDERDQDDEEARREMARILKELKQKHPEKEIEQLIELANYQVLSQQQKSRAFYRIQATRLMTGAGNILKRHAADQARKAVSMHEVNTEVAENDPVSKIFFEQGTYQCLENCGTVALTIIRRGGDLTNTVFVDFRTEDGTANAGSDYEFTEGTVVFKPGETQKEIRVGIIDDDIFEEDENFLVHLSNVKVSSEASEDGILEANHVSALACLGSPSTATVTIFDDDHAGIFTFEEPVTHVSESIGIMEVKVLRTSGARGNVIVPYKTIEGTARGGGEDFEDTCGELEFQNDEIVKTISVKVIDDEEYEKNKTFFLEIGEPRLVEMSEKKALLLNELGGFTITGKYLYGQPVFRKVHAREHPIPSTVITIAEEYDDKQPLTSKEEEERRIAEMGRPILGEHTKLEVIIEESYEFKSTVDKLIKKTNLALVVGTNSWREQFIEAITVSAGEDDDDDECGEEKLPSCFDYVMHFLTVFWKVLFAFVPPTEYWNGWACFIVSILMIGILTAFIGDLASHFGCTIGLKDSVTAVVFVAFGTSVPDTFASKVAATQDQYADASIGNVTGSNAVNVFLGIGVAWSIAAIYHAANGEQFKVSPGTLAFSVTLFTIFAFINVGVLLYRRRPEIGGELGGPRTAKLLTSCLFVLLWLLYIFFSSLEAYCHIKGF
Method: (§1) To identify the critical residues involved in drug sensitivity between NCX1 and NCX3 proteins, each residue in NCX1, in the regions α1 and α2, was substituted with the corresponding residue in NCX3.
(§2) All experiments aimed to identify the binding site of neurounina-1 were performed on BHK cells stably transfected with a single NCX chimera or mutant.
(§3) The activity of the Na^+/Ca^2+ exchanger was measured by means of ^45Ca^2+ radiotracer variations in the cytoplasm of cells exposed to a protocol stimulating the forward or the reverse mode of the antiporter. The BHK cells expressing each mutated or non-mutated NCX isoform were cultured in 12-well dishes and incubated in 145 mM NaCl for 10 minutes and then in a medium containing only 145 mM N-Methyl D-glucamine (NMDG) and 10 µM of ^45Ca^2+. This rapid substitution of the medium from a high level of Na^+ to another one without Na^+ allow the ^45Ca^2+ influx (reverse mode). Before the medium substitution cells was incubated with 1 mM ouabain, a Na^+/K^+ pump inhibitor, and 10 µM monensin, a ionophore for extracellular Na^+. […] The medium was removed and cells were subsequently lysed with 0.1 N NaOH and aliquots were taken to determine radioactivity and protein content.
(§4) Briefly, BHK cells wild type and/or BHK trasnsfected with NCX mutants, grown on glass coverslips, were loaded with Fura-2 acetoxymethyl ester (Fura-2AM) (10 µM) for 30 minutes at 37°C in normal Krebs solution containing the following (in mM): 5.5 KCI, 160 NaCl, 1.2 MgCl2, 1.5 CaCl2, 10 glucose, and 10 Hepes-NaOH, pH 7.4. […] Fura-2 fluorescence intensity was measured every 3 seconds. […] NCX activity was evaluated as Ca2+ uptake through the reverse mode by switching the normal Krebs medium containing thapsigargi (1µM) to Na^+-deficient NMDG+ medium (Na^+-free) containing (in mM): 5.5 KCI, 147 N-Methyl glucamine, 1.2 MgCl2, 1.5 CaCl2, 10 glucose, and 10 Hepes-NaOH (pH 7.4). All the results are presented as percentage of cytosolic Ca^2+ concentration increase above basal values and expressed as mean± S.E.M.

NCX1 N124G = molecular target: T3, NCX1 N124G (Canis lupus familiaris, UniProt P23685, N157G); assay: as above; details: single mutation, functional exchanger
T3 construct: expressed in transfected cells
T3 sequence (P23685 33-970 N157G): as the sequence (P23685 33-970 L840F) above, with N125G, F808L counted along it
Method: as §1, §2, §3, §4

NCX1 V117L = molecular target: T4, NCX1 V117L (Canis lupus familiaris, UniProt P23685, V150L); assay: as above; details: single mutation, functional exchanger
T4 construct: expressed in transfected cells
T4 sequence (P23685 33-970 V150L): as the sequence (P23685 33-970 L840F) above, with V118L, F808L counted along it
Method: as §1, §2, §3, §4

T1 sequence (P23685 33-970): as the sequence (P23685 33-970 L840F) above, with F808L counted along it

Structure (SMILES): O=C1CN=C(c2ccccc2)c2cc([N+](=O)[O-])ccc2N1CN1CCCC1 [neurounina-1, 7-nitro-5-phenyl-1-(pyrrolidin-1-ylmethyl)-1H-benzo[e][1,4]diazepin-2(3H)-one]
- increased forward and reverse activity of NCX1 (NCX1): 60%
- sensitivity of NCX1 mutant L808F (NCX1 L808F): insensible
- sensitivity of NCX1 mutant N124G (NCX1 N124G): insensible
- sensitivity of NCX1 mutant V117L (NCX1 V117L): insensible
